Reference: article PMC3022525, “Analysis of LhcSR3, a Protein Essential for Feedback De-Excitation in the Green Alga Chlamydomonas reinhardtii” (PLoS Biology, 2011)

What was measured:
LhcSR3 [1] = biological target: T1, LhcSR3 (Chlamydomonas reinhardtii, UniProt P0DO19); assay: […]-DCCD labelling, SDS-PAGE autoradiography, densitometry; format: binding; details: covalent; labelled compound; protonatable residues
T1 construct: gene LHCSR3.1; precursor 259 residues
T1 sequence (P0DO19 46-259 limits assumed): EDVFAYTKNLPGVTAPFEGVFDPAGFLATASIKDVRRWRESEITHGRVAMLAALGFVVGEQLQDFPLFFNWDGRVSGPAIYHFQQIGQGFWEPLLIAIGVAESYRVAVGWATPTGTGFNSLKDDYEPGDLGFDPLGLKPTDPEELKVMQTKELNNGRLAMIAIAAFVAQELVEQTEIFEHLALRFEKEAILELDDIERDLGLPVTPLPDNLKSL

LhcSR3 [2] = biological target: T1, LhcSR3; assay: in vitro reconstitution, HPLC pigment analysis, Soret spectral deconvolution; format: binding
[3] = refolded with Chl a, Chl b, lutein and violaxanthin (LV complex), sites L1/L2 proposed

| SMILES | in vitro reconstitution, HPLC pigment analysis, Soret spectral deconvolution (LhcSR3 [2]; [3]) | other results |
| --- | --- | --- |
| C(=NC1CCCCC1)=NC1CCCCC1 [DCCD] | – | 14C-DCCD labelling, SDS-PAGE autoradiography, densitometry (LhcSR3 [1]): LhcSR3 revealed very efficient binding of DCCD, higher than plant CP29 |
| CC1=C[C@H](O)CC(C)(C)[C@H]1/C=C/C(C)=C/C=C/C(C)=C/C=C/C=C(C)/C=C/C=C(C)/C=C/C1=C(C)C[C@@H](O)CC1(C)C [lutein] | lutein and violaxanthin bound to the apoprotein | – |
| CC(/C=C/C=C(C)/C=C/[C@@]12O[C@]1(C)C[C@@H](O)CC2(C)C)=C\C=C\C=C(C)\C=C\C=C(C)\C=C\[C@@]12O[C@]1(C)C[C@@H](O)CC2(C)C [violaxanthin] | lutein and violaxanthin bound to the apoprotein | – |
| CC1=C(/C=C/C(C)=C/C=C/C(C)=C/C=C/C=C(C)/C=C/C=C(C)/C=C/C2=C(C)C[C@@H](O)CC2(C)C)C(C)(C)C[C@H](O)C1 [zeaxanthin] | – | in vitro reconstitution, HPLC pigment analysis, Soret spectral deconvolution (LhcSR3 [2]; refolded with zeaxanthin present besides lutein and violaxanthin (LVZ complex), several sites): implying that Zea entered the three sites, although to different extents |
